Experimental findings from ChEMBL document CHEMBL2021867, “Systematic Chemical Mutagenesis Identifies a Potent Novel Apratoxin A/E Hybrid with Improved in Vivo Antitumor Activity” (ACS Med Chem Lett, 2011) are described below.

In data set [1] the target is Hepatocyte growth factor receptor (Homo sapiens) (UniProt P08581). Put plainly: Inhibition of Met expressed human HCT116 cells by immunoblotting assay. The format is cell-based. As to conditions: HCT-116.
Data set [2] deals with Mus musculus. The data set is described as follows: Toxicity in human HCT116 cells xenografted nu/nu mouse assessed as kidney histology changes at 0.25 mg/kg, ip dosed daily for over 2 weeks. It is filed as organism-based, HCT-116. Set-up: dose 0.25 mg/kg, route intraperitoneal. As to conditions: in vivo, 336 h. For orientation: A xenograft is tissue or cells of one species grown in another, often human tumour cells in immunodeficient mice.

For data set [3], the system named is HCT-116. The data set is described as follows: Antitumor activity against human HCT116 cells xenografted in nu/nu mouse model at 0.25 mg/kg, ip dosed daily for over 2 weeks. The arrangement: dose 0.25 mg/kg. The format is functional, organism-based.
Data set [4] has as its system Mus musculus. Put plainly: Irreversible toxicity in human HCT116 cells xenografted nu/nu mouse at > 0.375 mg/kg, ip measured post compound withdrawal. The format is organism-based, HCT-116. Set-up: dose 0.375 mg/kg, route intraperitoneal. The conditions noted are these: in vivo.
For data set [5], the system named is Mus musculus. Put plainly: Toxicity in human HCT116 cells xenografted nu/nu mouse assessed as weight loss at 0.25 mg/kg, ip dosed daily for over 2 weeks. As to conditions: in vivo, 336 h. It is filed as organism-based, HCT-116. The arrangement: dose 0.25 mg/kg, route intraperitoneal.
The subject of data set [6] is Mus musculus. The data set is described as follows: Reduction in PDGFRbeta level in tumor of human HCT116 cells xenografted in nu/nu mouse at 0.25 mg/kg, ip dosed daily for over 2 weeks by Western blot. As to conditions: HCT-116. The arrangement: dose 0.25 mg/kg. The format is functional, organism-based.
For data set [7], the system named is Mus musculus. The data set is described as follows: Toxicity in human HCT116 cells xenografted nu/nu mouse assessed as mortality at > 0.375 mg/kg, ip measured post compound withdrawal. The format is organism-based, HCT-116. The arrangement: dose 0.375 mg/kg, route intraperitoneal. As to conditions: in vivo.
Data set [8] concerns Mus musculus. Put plainly: Reduction in VEGFR2 level in liver of human HCT116 cells xenografted in nu/nu mouse at 0.25 mg/kg, ip dosed daily for over 2 weeks by Western blot. It is filed as functional, organism-based. As to conditions: HCT-116. The arrangement: dose 0.25 mg/kg.
In data set [9] the test system is Mus musculus. The data set is described as follows: Toxicity in human HCT116 cells xenografted nu/nu mouse assessed as body weight loss at > 0.375 mg/kg, ip. It is filed as organism-based, HCT-116. The arrangement: dose 0.375 mg/kg, route intraperitoneal. As to conditions: in vivo.
The test system of data set [10] is Mus musculus. The data set is described as follows: Reduction in VEGFR2 level in tumor of human HCT116 cells xenografted in nu/nu mouse at 0.25 mg/kg, ip dosed daily for over 2 weeks by Western blot. As to conditions: HCT-116. The format is functional, organism-based. Set-up: dose 0.25 mg/kg.
The subject of data set [11] is Mus musculus. The data set is described as follows: Toxicity in human HCT116 cells xenografted nu/nu mouse assessed as liver histology changes at 0.25 mg/kg, ip dosed daily for over 2 weeks. The format is organism-based, HCT-116. Set-up: dose 0.25 mg/kg, route intraperitoneal. The conditions noted are these: in vivo, 336 h.
Data set [12] is filed under the species Oryctolagus cuniculus. The data set is described as follows: Inhibition of cotranslational processing of human PDGFRalpha in rabbit reticulocyte assessed as [35S-methionine] incorporation using canine pancreatic microsomal membranes by SDS-PAGE analysis. As to conditions: Microsome. It is filed as functional, microsomes.
Data set [13] has as its system Mus musculus. The data set is described as follows: Toxicity in human HCT116 cells xenografted nu/nu mouse assessed as mortality at > 0.375 mg/kg, ip. As to conditions: in vivo. Set-up: dose 0.375 mg/kg, route intraperitoneal. The format is organism-based, HCT-116.
Data set [14] relates to Mus musculus. The data set is described as follows: Toxicity in human HCT116 cells xenografted nu/nu mouse assessed as body weight loss at > 0.375 mg/kg, ip measured post compound withdrawal. Set-up: dose 0.375 mg/kg, route intraperitoneal. As to conditions: in vivo. It is filed as organism-based, HCT-116.
Data set [15] is filed under the species Oryctolagus cuniculus. The data set is described as follows: Inhibition of cotranslational processing of in rabbit reticulocyte assessed as [35S-methionine] incorporation using canine pancreatic microsomal membranes by SDS-PAGE analysis. The format is functional, microsomes. The conditions noted are these: Microsome.

The source made the active and inactive calls. The rule behind the calls is not given here.

Chain of Hepatocyte growth factor receptor (Homo sapiens) (P08581 whole entry): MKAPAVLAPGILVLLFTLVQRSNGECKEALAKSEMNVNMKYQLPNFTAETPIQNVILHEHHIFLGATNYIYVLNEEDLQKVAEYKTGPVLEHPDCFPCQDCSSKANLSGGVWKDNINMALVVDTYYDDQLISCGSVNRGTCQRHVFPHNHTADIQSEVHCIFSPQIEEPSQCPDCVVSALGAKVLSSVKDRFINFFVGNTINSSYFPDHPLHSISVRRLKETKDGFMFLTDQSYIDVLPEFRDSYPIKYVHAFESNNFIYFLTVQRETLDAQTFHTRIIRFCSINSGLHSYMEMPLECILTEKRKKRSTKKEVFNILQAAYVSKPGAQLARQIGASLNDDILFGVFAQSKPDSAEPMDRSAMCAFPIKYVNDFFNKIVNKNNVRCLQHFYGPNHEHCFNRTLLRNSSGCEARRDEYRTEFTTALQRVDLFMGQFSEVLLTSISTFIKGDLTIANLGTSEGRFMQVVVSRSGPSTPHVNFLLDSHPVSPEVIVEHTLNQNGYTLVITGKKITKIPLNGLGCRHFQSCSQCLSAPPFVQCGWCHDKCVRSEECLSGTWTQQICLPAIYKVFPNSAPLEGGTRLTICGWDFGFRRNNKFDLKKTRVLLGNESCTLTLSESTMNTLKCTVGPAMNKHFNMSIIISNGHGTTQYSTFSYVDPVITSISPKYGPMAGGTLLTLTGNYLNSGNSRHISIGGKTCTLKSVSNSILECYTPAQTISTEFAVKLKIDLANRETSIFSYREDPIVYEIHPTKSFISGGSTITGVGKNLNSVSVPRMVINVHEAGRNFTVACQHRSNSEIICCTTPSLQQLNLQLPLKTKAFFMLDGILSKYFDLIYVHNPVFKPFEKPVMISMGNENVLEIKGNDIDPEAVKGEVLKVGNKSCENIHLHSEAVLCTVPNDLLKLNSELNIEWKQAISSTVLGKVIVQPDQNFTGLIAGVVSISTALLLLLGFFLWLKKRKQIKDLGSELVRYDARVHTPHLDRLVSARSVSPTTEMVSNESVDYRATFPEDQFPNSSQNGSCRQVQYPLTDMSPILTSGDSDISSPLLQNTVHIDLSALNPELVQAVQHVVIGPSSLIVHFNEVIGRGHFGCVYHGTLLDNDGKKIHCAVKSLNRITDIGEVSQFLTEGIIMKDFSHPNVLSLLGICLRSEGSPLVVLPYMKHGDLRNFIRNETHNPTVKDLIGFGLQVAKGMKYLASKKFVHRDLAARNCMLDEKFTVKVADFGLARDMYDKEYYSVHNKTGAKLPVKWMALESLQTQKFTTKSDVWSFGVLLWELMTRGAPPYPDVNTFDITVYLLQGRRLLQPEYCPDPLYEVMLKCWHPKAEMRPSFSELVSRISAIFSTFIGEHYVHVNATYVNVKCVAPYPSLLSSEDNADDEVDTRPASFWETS

As for `COc1ccc(C[C@@H]2NC(=O)/C(C)=C/[C@H]3CSC(=N3)[C@@H](C)[C@@H](O)C[C@H](C)C[C@@H](C(C)(C)C)OC(=O)[C@@H]3CCCN3C(=O)[C@H](C)N(C)C(=O)[C@H](C)N(C)C2=O)cc1`, in data set [1], the inhibition entry was “inactive”.

`CC[C@H](C)[C@H]1C(=O)N2CCC[C@H]2C(=O)O[C@H](C(C)(C)C)C[C@@H](C)C[C@H](O)[C@H](C)C2=N[C@@H](CCC(=O)N[C@@H](Cc3ccc(OC)cc3)C(=O)N(C)[C@@H](C)C(=O)N1C)CS2` [APRATOXIN S4]: the Activity entry in data set [2], in data set [4], in data set [5], in [7], in data set [9] and in data set [11] was “Non-toxic” in each case. The Activity entry in [13] and in data set [14] was “Non-toxic” throughout. Also, the result in [3], in data set [6] and in [10] was Active. Moreover, the outcome in [8] was inactive. Besides, in data set [12], the inhibition result was “Active”. The inhibition result in [15] was “Dose-dependent effect”.

Take `CC[C@H](C)[C@H]1C(=O)N(C)[C@@H](C)C(=O)O[C@H](C(C)(C)C)C[C@@H](C)C[C@H](O)[C@H](C)C2=N[C@@H](/C=C(\C)C(=O)N[C@@H](Cc3ccc(OC)cc3)C(=O)N(C)[C@@H](C)C(=O)N1C)CS2`: in data set [1], the inhibition result is “Active”.

`CC[C@H](C)[C@H]1C(=O)N2CCC[C@H]2C(=O)O[C@H](C(C)(C)C)C[C@@H](C)C[C@H](O)[C@H](C)C2=N[C@@H](/C=C(\C)C(=O)N[C@@H](C)C(=O)N(C)[C@@H](C)C(=O)N1C)CS2`: the inhibition entry in [1] is “inactive”.
